Results taken from patent publication US6551993B1, “Partial agonists at the glycine modulatory site of the NMDA receptor for treating cognitive dysfunction” (Thomas Jefferson University, priority 1999, dated 2003).
“Also recorded” adds a separate entry of the source.

What was measured:
Format in all cases: in vivo, cynomolgus monkeys (Macaca fascicularis)
[1] = test system: chronic low dose MPTP-treated monkeys; assay: spatial delayed response (DR) task
From the text: (§1) Four adult male cynomolgus monkeys (Macaca fascicularis) weighing 5.0-8.0 kg at the beginning of testing were used. All animals had prior behavioral testing experience and had stable cognitive deficits as a result of prior MPTP administration. These animals had previously been used in other pharmacological studies (Schneider J S, Tinker J P, Van Velson M, Menzaghi F, Lloyd G K. Nicotinic acetylcholine receptor agonist SIB-1508Y improves cognitive functioning in chronic low dose MPTP-treated monkeys. J Pharmacol Exp Ther 290: In Press, 1999) but had received no drug treatments for at least 6 mos. prior to the start of this study. This study was approved by the Institutional Animal Care and Use Committee at Thomas Jefferson University and performed in accordance with the NIH Guide for the Care and Use of Laboratory Animals.
(§2) Three of the four animals were tested in a modified Wisconsin General Test Apparatus (WGTA) (Schneider and Kovelowski, 1990); one animal performed computer automated tasks while seated in front of a touch sensitive computer monitor located in a darkened sound-attenuated cubicle. All monkeys performed a spatial delayed response (DR) task, a variable delayed response task (VDR) and a visual discrimination (VD) task.
(§3) The monkeys that performed in the WGTA sat in a restraining chair situated in a sound-attenuating chamber with background masking noise, behind an opaque screen that when raised, allowed access to a sliding tray. The tray contained recessed food wells and identical sliding red Plexiglas covers that served as stimulus plaques that could be displaced by the animal to obtain rewards (raisins, dried fruit, marshmallows). The monkeys were trained to retrieve food from one of the wells after observing the experimenter bait a well. Right and left wells were baited in a balanced order. Each daily session consisted of 30 trials. For VDR testing, five different delay lengths (2, 5, 10, 20 and 30 secs.) were randomly distributed in blocks of trials over the 40 trials that made up a daily testing session. For VD testing, monkeys were trained to discriminate between two patterns (a cross and a horizontal bar) on otherwise identical Plexiglas covers. The position of the positive stimulus (cross) over the left or right food well varied pseudorandomly. The cover had to be displaced in order to retrieve reward from the recessed food well beneath the cover. A test session consisted of 30 trials. Animals were food deprived overnight prior to testing the next day.
(§4) The monkey that performed the computer automated tasks sat in a restraining chair situated in a sound-attenuating chamber with background masking noise, and faced a touch sensitive computer screen with a lever located beneath it. The animal initiated a DR or VDR trial by holding down the lever for one to three seconds. This caused the cue, a filled white circle one inch in diameter, to appear on the right or left side of the screen for two seconds. The cue was then extinguished for a delay period (five seconds for DR; 2, 5, 10, 20, and 30 secs. for VDR) and then identical left and right choice stimuli (filled red circles, one inch in diameter) were presented. The monkey was rewarded with a fruit flavored drink from an automatic dispenser if it touched the response light located on the same side as where the cue appeared. Side of cue presentation was counter-balanced and left/right rewards were distributed pseudorandomly over the 30 trials (40 trials for VDR) that made up a daily testing session. This animal was tested in the morning and fluid deprived overnight prior to testing.
(§5) Animals initially received low doses of MPTP for periods of up to 178 days until stable cognitive deficits (consistent performance deficits of at least 15% on DR) were observed (Schneider et al., 1999). These animals had not received any MPTP for at least 9 months prior to the start of this study. […]

[2] = test system: chronic low dose MPTP-treated monkeys; assay: variable delayed response (VDR) task
From the text: as §1, §2, §3, §4, §5

[3] = test system: chronic low dose MPTP-treated monkeys; assay: visual discrimination (VD) task
From the text: as §1, §2
as §3, with “A test session consisted of 30 trials. Animals were food deprived overnight prior to testing the next day.” left out
Animals initially received low doses of MPTP for periods of up to 178 days until stable cognitive deficits (consistent performance deficits of at least 15% on DR) were observed (Schneider et al., 1999). […] Drug effects were determined for D-cycloserine and MK-801 (Research Biochemicals International, Natick, M A) at doses of 100, 320, 1,000, and 8,000 μg/kg and 10, 20 or 32 μg/kg, respectively. […]

[4] = test system: chronic low dose MPTP-treated monkeys; assay: motor functioning during visual discrimination testing

## N[C@@H]1CONC1=O [D-cycloserine]
[1]; 100 μg/kg i.m., approx. 30 min before test, vs. saline
  DR performance: Neither the low (100 μg/kg) nor high (8,000 μg/kg) doses of D-cycloserine had any effect
[1]; 320 μg/kg i.m., approx. 30 min before test, vs. saline (t=6.73, p<0.01)
  DR performance: significantly improving task performance
[1]; 1,000 μg/kg i.m., approx. 30 min before test, vs. saline (t=3.76, p<0.05)
  DR performance: significantly improving task performance
[1]; 8,000 μg/kg i.m., approx. 30 min before test, vs. saline
  DR performance: Neither the low (100 μg/kg) nor high (8,000 μg/kg) doses of D-cycloserine had any effect; also recorded: neither improvement nor further disruption
[1]; dose response 100 to 1000 μg/kg i.m., 4 animals, FIG. 1A
  MPTP-induced DR performance deficit: at least partially corrected
[2]; 100 μg/kg i.m., all delays (2, 5, 10, 20, 30 sec)
  VDR performance: had no effects
[2]; 320 μg/kg i.m., at 2, 5, and 20 sec. delays
  VDR performance: significantly improved performance
[2]; 1,000 μg/kg i.m., at 2, 5, and 10 sec delays
  VDR performance: significantly improved performance
[2]; 8,000 μg/kg i.m.
  VDR performance: neither improvement nor further disruption
[2]; 30 sec. delay, any dose
  VDR performance: None of the doses of D-cycloserine improved performance
[2]; best (most facilitating) dose for each animal vs. saline, FIG. 1B
  VDR performance: significantly improved performance at all but the longest delay
[3]; 8,000 μg/kg i.m., all animals, p<0.01 vs. saline, FIG. 2
  VD performance: significantly disrupted; also recorded: significantly impaired; also recorded: deficits induced in VD performance
[3]; 100 to 1,000 μg/kg i.m.
  VD performance: had no effects
[3]; low doses (10, 32 or 100 μg/kg)
  deficits in VD performance: not with low doses
[4]; 8,000 μg/kg i.m.
  motor functioning: did not significantly impair motor functioning

## C[C@]12N[C@H](Cc3ccccc31)c1ccccc12 [MK-801]
[1]; 10-32 μg/kg i.m., vs. saline
  DR performance: had no effects
[3]; 10-32 μg/kg i.m., all animals, p<0.01 vs. saline, FIG. 2
  VD performance: significantly disrupted; also recorded: significant impairment
[4]; 10-32 μg/kg i.m.
  motor functioning: did not significantly impair motor functioning
